What was measured:
CYP17 = settings: Figure 1, known CYP17 inhibitors; cited from earlier work
OVCAR-3 = test: NCI-60 SRB screen; type: cell-based, human; settings: OVCAR-3; single dose 10^−5 M
SF-295 = test: NCI-60 SRB screen; type: cell-based, human; settings: SF-295; single dose 10^−5 M
HT-29 = test: NCI-60 SRB screen; type: cell-based; settings: HT-29; single dose 10^−5 M
UO-31 = test: NCI-60 SRB screen; type: cell-based, human; settings: UO-31; single dose 10^−5 M
CAKI-1 = test: NCI-60 SRB screen; type: cell-based, human; settings: CAKI-1; single dose 10^−5 M
NCI-H322M = test: NCI-60 SRB screen; type: cell-based, human; settings: single dose 10^−5 M
MOLT-4 = test: NCI-60 SRB screen; type: cell-based; settings: MOLT-4; single dose 10^−5 M
[1] = test system: panel of 60 cancer cell lines; test: NCI-60 SRB screen, mean or range over the panel; type: cell-based, human; settings: mean over the cell lines; single dose 10^−5 M
SNB-19 = test: NCI-60 SRB screen; type: cell-based; settings: SNB-19; single dose 10^−5 M
A549/ATCC = test: NCI-60 SRB screen; type: cell-based, human; settings: single dose 10^−5 M
KM12 = test: NCI-60 SRB screen; type: cell-based, human; settings: KM12; single dose 10^−5 M
SK-OV-3 = test: NCI-60 SRB screen; type: cell-based, human; settings: SK-OV-3; single dose 10^−5 M
HCT-15 = test: NCI-60 SRB screen; type: cell-based, human; settings: HCT-15; single dose 10^−5 M
HCT-116 = test: NCI-60 SRB screen; type: cell-based, human; settings: HCT-116; single dose 10^−5 M
UACC-257 = test: NCI-60 SRB screen; type: cell-based, human; settings: UACC-275 (so in the source); single dose 10^−5 M
MALME-3M = test: NCI-60 SRB screen; type: cell-based, human; settings: single dose 10^−5 M
HL-60(TB) = test: NCI-60 SRB screen; type: cell-based, human; settings: HL-60 (TB); single dose 10^−5 M
SK-MEL-28 = test: NCI-60 SRB screen; type: cell-based; settings: SK-MEL-28; single dose 10^−5 M
NCI-H460 = test: NCI-60 SRB screen; type: cell-based, human; settings: NCI-H460; single dose 10^−5 M
OVCAR-4 = test: NCI-60 SRB screen; type: cell-based, human; settings: OVCAR-4; single dose 10^−5 M
CCRF-CEM = test: NCI-60 SRB screen; type: cell-based; settings: single dose 10^−5 M
HOP-92 = test: NCI-60 SRB screen; type: cell-based, human; settings: HOP-92; single dose 10^−5 M
LOX IMVI = test: NCI-60 SRB screen; type: cell-based, human; settings: single dose 10^−5 M
HOP-62 = test: NCI-60 SRB screen; type: cell-based, human; settings: HOP-62; single dose 10^−5 M
SK-MEL-2 = test: NCI-60 SRB screen; type: cell-based, human; settings: SK-MEL-2; single dose 10^−5 M
OVCAR-5 = test: NCI-60 SRB screen; type: cell-based, human; settings: OVCAR-5; single dose 10^−5 M
SN12C = test: NCI-60 SRB screen; type: cell-based, human; settings: SN 12 C; single dose 10^−5 M
SF-539 = test: NCI-60 SRB screen; type: cell-based, human; settings: SF-539; single dose 10^−5 M
ACHN = test: NCI-60 SRB screen; type: cell-based; settings: single dose 10^−5 M
MDA-MB-435 = test: NCI-60 SRB screen; type: cell-based; settings: MDA-MB435; single dose 10^−5 M
SR = test: NCI-60 SRB screen; type: cell-based; settings: single dose 10^−5 M
NCI/ADR-RES = test: NCI-60 SRB screen; type: cell-based, human; settings: single dose 10^−5 M
RXF 393 = test: NCI-60 SRB screen; type: cell-based, human; settings: RXF 393; single dose 10^−5 M
TK-10 = test: NCI-60 SRB screen; type: cell-based, human; settings: TK-10; single dose 10^−5 M
SF-268 = test: NCI-60 SRB screen; type: cell-based, human; settings: SF-268; single dose 10^−5 M
A498 = test: NCI-60 SRB screen; type: cell-based, human; settings: A498; single dose 10^−5 M
M14 = test: NCI-60 SRB screen; type: cell-based, human; settings: M14; single dose 10^−5 M
OVCAR-8 = test: NCI-60 SRB screen; type: cell-based, human; settings: OVCAR-8; single dose 10^−5 M
U251 = test: NCI-60 SRB screen; type: cell-based, human; settings: U251; single dose 10^−5 M
NCI-H23 = test: NCI-60 SRB screen; type: cell-based, human; settings: NCI-H23; single dose 10^−5 M
SNB-75 = test: NCI-60 SRB screen; type: cell-based, human; settings: SNB-75; single dose 10^−5 M
SK-MEL-5 = test: NCI-60 SRB screen; type: cell-based, human; settings: SK-MEL-5; single dose 10^−5 M
SW-620 = test: NCI-60 SRB screen; type: cell-based; settings: SW-620; single dose 10^−5 M
786-0 = test: NCI-60 SRB screen; type: cell-based; settings: 786-0; single dose 10^−5 M
K-562 = test: NCI-60 SRB screen; type: cell-based, human; settings: K-562; single dose 10^−5 M
HCC-2998 = test: NCI-60 SRB screen; type: cell-based, human; settings: HCC-2998; single dose 10^−5 M
NCI-H522 = test: NCI-60 SRB screen; type: cell-based, human; settings: NCI-H522; single dose 10^−5 M
COLO 205 = test: NCI-60 SRB screen; type: cell-based, human; settings: COLO 205; single dose 10^−5 M
NCI-H226 = test: NCI-60 SRB screen; type: cell-based, human; settings: NCI-H226; single dose 10^−5 M
UACC-62 = test: NCI-60 SRB screen; type: cell-based, human; settings: UACC-62; single dose 10^−5 M
IGROV1 = test: NCI-60 SRB screen; type: cell-based, human; settings: IGROV1; single dose 10^−5 M
RPMI-8226 = test: NCI-60 SRB screen; type: cell-based; settings: RPMI-8226; single dose 10^−5 M
EKVX = test: NCI-60 SRB screen; type: cell-based, human; settings: single dose 10^−5 M

## CNC(=O)c1ccc(N2C(=S)N(c3cnc(C#N)c(C(F)(F)F)c3)C(=O)C23CCC3)cc1F [Apalutamide, apalutamide]
CYP17
  IC50: 15 nM

## Cc1ccncc1N1CCN(c2ccnc(Cl)c2)C1=O [CFG920]
CYP17
  IC50: 23 nM

## O=C1C(=Cc2cccc([N+](=O)[O-])c2)Sc2c(F)cccc21 [Compound 2d, 7-Fluoro-2-(3-nitrobenzylidene)[1]benzothiophen-3(2H)-one]
other
  melting point: 200 to 202 °C

## O=C1Cc2c(sc3c(F)cccc23)C(c2cccc([N+](=O)[O-])c2)N1 (stereo not drawn) [Compound 3d]
OVCAR-3
  Growth inhibition (%): 0.09%
SF-295
  Growth inhibition (%): 2.30%
HT-29
  Growth inhibition (%): 0.03%
UO-31
  Growth inhibition (%): 34.84%
CAKI-1
  Growth inhibition (%): 21.82%
NCI-H322M
  Growth inhibition (%): 2.78%
MOLT-4
  Growth inhibition (%): 2.90%
[1]
  Mean growth inhibition (%): 6.24%
SNB-19
  Growth inhibition (%): 6.23%
A549/ATCC
  Growth inhibition (%): −5.27%
KM12
  Growth inhibition (%): 3.93%
SK-OV-3
  Growth inhibition (%): −3.95%
HCT-15
  Growth inhibition (%): 21.33%
HCT-116
  Growth inhibition (%): 23.07%
UACC-257
  Growth inhibition (%): −7.53%
MALME-3M
  Growth inhibition (%): −6.36%
HL-60(TB)
  Growth inhibition (%): 12.00%
SK-MEL-28
  Growth inhibition (%): −9.19%
NCI-H460
  Growth inhibition (%): 0.53%
OVCAR-4
  Growth inhibition (%): −1.20%
CCRF-CEM
  Growth inhibition (%): 0.90%
HOP-92
  Growth inhibition (%): 10.96%
LOX IMVI
  Growth inhibition (%): 12.77%
HOP-62
  Growth inhibition (%): 14.32%
SK-MEL-2
  Growth inhibition (%): −1.12%
OVCAR-5
  Growth inhibition (%): −8.70%
SN12C
  Growth inhibition (%): 4.04%
SF-539
  Growth inhibition (%): 6.60%
ACHN
  Growth inhibition (%): 6.70%
MDA-MB-435
  Growth inhibition (%): −3.38%
SR
  Growth inhibition (%): 23.81%
NCI/ADR-RES
  Growth inhibition (%): 4.50%
RXF 393
  Growth inhibition (%): −5.23%
TK-10
  Growth inhibition (%): −52.28%
SF-268
  Growth inhibition (%): 14.60%
A498
  Growth inhibition (%): 4.88%
M14
  Growth inhibition (%): 1.35%
OVCAR-8
  Growth inhibition (%): 2.86%
U251
  Growth inhibition (%): 20.57%
NCI-H23
  Growth inhibition (%): 1.04%
SNB-75
  Growth inhibition (%): 21.53%
SK-MEL-5
  Growth inhibition (%): 5.55%
SW-620
  Growth inhibition (%): 2.40%
786-0
  Growth inhibition (%): −10.00%
K-562
  Growth inhibition (%): 15.78%
HCC-2998
  Growth inhibition (%): −6.11%
NCI-H522
  Growth inhibition (%): 17.55%
COLO 205
  Growth inhibition (%): −7.27%
NCI-H226
  Growth inhibition (%): 21.32%
UACC-62
  Growth inhibition (%): 14.07%
IGROV1
  Growth inhibition (%): 20.45%
RPMI-8226
  Growth inhibition (%): 29.04%
EKVX
  Growth inhibition (%): 7.98%

## C[C@]12CC[C@H](O)CC1=CC[C@@H]1[C@@H]2CC[C@]2(C)C(n3cnc4ccccc43)=CC[C@@H]12 [Galeterone]
CYP17
  IC50: 300 nM

## Oc1ccc2sc3c(c2c1)CCN(Cc1cccnc1)C3 [VIc]
CYP17
  IC50: 20.9 nM

## N#Cc1ccc2sc3c(c2c1)CCN(Cc1cccnc1)C3 [VId]
CYP17
  IC50: 257 nM

## c1ccc2c(c1)[nH]c1cc(Cc3cnc[nH]3)ccc12 [YM-116]
CYP17
  IC50: 228 nM
